In patent US7875604B2, “Compounds that inhibit HIV particle formation” (University of Virginia Patent Foundation, priority 2004, dated 2011):
Read-outs that look alike come from different tables or passages of the source.

Legend:
HIV-1 Rev = biological target: T1, HIV-1 Rev (Human immunodeficiency virus type 1 group M subtype B, UniProt P04618); test: cell-based; conditions: for TI (TC50/IC50): Rev assay
T1 construct: expressed in transfected cells
Description: The eight compounds listed in Table 1 were also tested in an assay that measured HIV-1 Rev function. […] The reporter used for these assays is the Renilla Luciferase protein, which is an enzyme that produces detectable light when mixed with certain chemicals. For this assay, a cell line has been developed in which the production of the reporter by the cells requires the function of HIV-1 Rev. Therefore, if a drug candidate inhibits the function of Rev, it decreases the amount of the reporter produced by the cells. By using Renilla Luciferase as the reporter, the inhibition of Rev is easily detected as a decrease in the amount of light produced by the cells when mixed with the appropriate chemicals.
(§1) Compounds were tested in the Rev assay using the maximum high-test concentration possible based on the supplied stocks as shown in Table 3. Compounds were prepared at a 2× high-test concentration by combining drug stock with tissue culture media at a ratio of 5 μL of drug to 995 μL of media. This 2× high-test sample was subsequently serially diluted in tissue culture media using 1/2 log dilutions. This series of 2× concentrated drug was subsequently diluted 1:1 by combining with an equal volume of cells in media in the 96-well plates used for the assay.

[1] = HIV-1 Rev assay toxicity/non-specificity readout (Firefly Luciferase); assay type: cell-based; conditions: human
Description: The eight compounds listed in Table 1 were also tested in an assay that measured HIV-1 Rev function. The HIV-1 Rev assay is based upon the use of a reporter for detecting whether drug candidates are capable of inhibiting the function of the viral Rev protein. The reporter used for these assays is the Renilla Luciferase protein, which is an enzyme that produces detectable light when mixed with certain chemicals. For this assay, a cell line has been developed in which the production of the reporter by the cells requires the function of HIV-1 Rev. Therefore, if a drug candidate inhibits the function of Rev, it decreases the amount of the reporter produced by the cells. By using Renilla Luciferase as the reporter, the inhibition of Rev is easily detected as a decrease in the amount of light produced by the cells when mixed with the appropriate chemicals. Furthermore, the cell line for this assay has been engineered to use a second similar reporter (Firefly Luciferase) that detects whether drug candidates are toxic.
as §1, with “assay. Representative data for two of the compounds is also depicted in FIG. 5.” for “assay.”
Leptomycin B is a control compound known to inhibit Rev function.

[2] = system: HIV particle formation in 5BD.1 cells; test: Six point dose response assay of HIV particle release (p24 ELISA) in 5BD.1 cells; assay type: cell-based, HIV-1; conditions: for IC50: six point dose response, p24 in 5BD.1 cells, Table 1; for TI (TC50/IC50): TC50 MT4 cells / IC50 5BD.1 cells
Excerpt: The present invention is directed to a safe quantitative in vitro high-throughput assay to screen library compounds for effects on Rev-dependent p24 production. Two cell lines derived from COS cells provide the means of determining whether a library compound has anti-Rev activity-5BD.1 and 2A.22. These cell lines constitutively express HIV-like particles that contain the HIV core proteins as well as HIV envelope protein. The non-infectious virions created by these cells are secreted into the media, where a simple p24 ELISA can quantitatively determine virion production. Production of these virus-like particles is totally dependent on the expression of the Rev protein (for the 5BD.1 cell line), which is also made in these cell lines, or independent of Rev protein expression (the 2A.22 cell line).
The cell line 5BD.1 was created by transfecting COS cells with the wild type HIV-1 structural and regulatory genes gag, gagpol, rev, and env. Each of these genes is necessary but not sufficient for producing infectious HIV virions. Non-infectious virions are produced in 5BD.1 cells via the same pathways as in CD4^+ cells. Inhibition of Rev with a library compound would therefore have the same effect on viral production in 5BD.1 cells as in CD4^+ cells.
Each of the 192 compounds was then subjected to 3 and 6 point dose response assays in 5BD.1 cells and toxicity testing in the MT-4 T cell line. The dose response assay was performed as follows
• 1. 5BD.1 cells were carried in 2 T175 flasks in medium (IMDM/10% FCS/0.2 mg/ml HygromycinB/1.5 mg/ml G418/0.05 mg/ml gentamycin). Cells were trypsinized and harvested from a 90% confluent flask. • 2. 20,000 cells per well were plated into rows A-G of 8 tissue culture treated clear 96-well plates in 135 μl per well of medium without G418 (assay medium). 135 μl of medium only was added to row H. • 3. The plates were placed into the incubator for one hour. • 4. Compounds were serially diluted 1:3 two times from 1 mM DMSO stocks in DMSO in 96 well polypropylene plates. 8 μl of the DMSO solutions were transferred to another plate and 72 μl of assay medium was added. • 5. 15 μl of each diluted compound was transferred to the cell plates in duplicate with the high (10 μM final concentration in rows A-B, 3 μM concentration in rows C-D, 1 μM concentration in rows E-F and DMSO only in rows G-H). • 6. The plates were then incubated overnight for 16 hours. • 7. In the morning of the next day the medium was removed by hand from all wells. • 8. 135 μl of fresh assay medium was added to each well followed by 15 μl of diluted compounds as described in step 5. • 9. The plates were then incubated for 24 hours and the medium was harvested. p24 ELISA Assay: • 10. Dilute primary antibody to 4 μg/ml in DPBS without calcium and magnesium, add 50 μl per well of a 96 well Maxisorp plate, incubate overnight at 4° C. • 11. Aspirate coating solution, block for 30-60 minutes with 200 μl ELISA buffer (4 mg/ml BSA, 0.01% Tween20 in DPBS without calcium and magnesium). • 12. Wash plates 2×. • 13. Add 50 μl of the supernatants from step 9 above. • 14. Add 15 μl of a 1:750 dilution of biotinylated secondary antibody in 40% lysis buffer/ELISA buffer. • 15. Incubate 2 hours at room temperature with shaking. • 16. Wash plates 3×. • 17. Add 50 μL/well of a 1:10,000 dilution of detection SA-HRP. Incubate at room temperature with shaking for 30 minutes. • 18. Wash plates 3×. Add 50 μL/well of TMB substrate solution to all wells and develop for approximately 15 minutes until blue. • 19. Stop the reaction with 50 μL/well 0.18M sulfuric acid. • 20. Read plate at 450 nm. Toxicity Assays:
(§2) The six point dose assay in 5BD.1 cells was used to calculate an IC50 for the compounds and data from the MT-4 toxicity assay allowed a TC50 to be calculated.

MT4 cells = test: MTS-based toxicity assay in MT-4 T cell line; conditions: Table 1, read-out: TC50 (the source's name)
Description: The dose response assay was performed as follows
MTS-based toxicity assays were performed in parallel to the 3 and 6 point dose response assays.
as §2

[3] = 50% inhibition of Renilla Luciferase, 24 hours, HeLa reporter line, read-out: IC50

T1 sequence (P04618 whole entry, looked up): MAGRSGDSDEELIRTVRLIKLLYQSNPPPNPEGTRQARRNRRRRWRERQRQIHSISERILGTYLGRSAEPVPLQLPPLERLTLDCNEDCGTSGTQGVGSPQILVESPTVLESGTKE

Row | Compound | IC50 (HIV-1 Rev; [3]) | TI (TC50/IC50) (HIV-1 Rev) | CC50 at 24 hours ([1]; 50% inhibition of Firefly Luciferase (toxicity/non-specificity), 24 hours, read-out: TC50) | IC50 ([2]; Human immunodeficiency virus 1) | TI (TC50/IC50) [2] | CC50 (MT4 cells) | IC50 [2] | IC50 (HIV-1 Rev) | CC50 at 24 hours [1]
1 | COc1ccc2nc(C(F)(F)F)c(C#N)c(N)c2c1 [Compound 104366, 4-amino-6-methoxy-2-(trifluoromethyl)-3-quinolinecarbonitrile] | 2.24 µM | 7.68 | 17.2 µM | 2500 nM | 11.2 | 28 µM | – | – | –
2 | 2-chloro-N-(4-methylphenyl)-4-(trifluoromethyl)-1,3-thazole-5-carboxamide [Compound 91161] | 9.73 µM | >4.06 | – | – | 9.47 | 18 µM | 1900 nM | – | –
3 | Fc1ccc(Nc2ncnc3ccccc23)cc1Cl [Compound 109020, N-(3-chloro-4-fluorophenyl)-N-(4-quinazolinyl)amine] | – | >4.54 | – | 3000 nM | 33.3 | – | – | 8.98 µM | > 40.8 µM
4 | COc1cccc(NC(=O)c2cc(Cl)nnc2Cl)c1 [Compound 107740, 3,6-dichloro-N-(3-methoxyphenyl)-4-pyridazinecarboxamide] | 8 µM | 2.31 | – | 4900 nM | 10.2 | 50 µM | – | – | 18.5 µM
5 | CS(=O)(=O)c1ncc(-c2ccc(Br)cc2)cn1 [Compound 107129, -(4-bromophenyl)-2-(methylsulfonyl)pyrimidine] | 7.48 µM | 4.13 | – | 250 nM | 40.0 | 10 µM | – | – | 30.9 µM
6 | CCc1c(C(=O)Nc2ccccc2)c(C)nc2sc(C(N)=O)c(N)c12 [Compound 75168, 3-amino-4-ethyl-6-methyl-N˜5˜-phenylthieno[2,3-b]pyridine-2,5-dicarboxamide] | 2.42 µM | 3.27 | – | 3000 nM | >33.3 | > 100 µM | – | – | 7.91 µM
7 | CCc1c(C)nc2sc(C(N)=O)c(N)c2c1C [Compound 103833, 3-amino-5-ethyl-4,6-dimethylthieno[2,3-b]pyridine-2-carboxamide] | – | – | – | 900 nM | 35.6 | 32 µM | – | 1.07 µM | > 37.6 µM
8 | COc1ccc2cc3c(N)n[nH]c3nc2c1 [Compound 89246, 7-methoxy-1H-pyrazolo[3,4-b]quinolin-3-ylamine] | 0.48 µM | 17.52 | – | 900 nM | 22.22 | 20 µM | – | – | 8.41 µM
